# Biological target: T1, human TLR7 (Homo sapiens, UniProt Q9NYK1)
# T1 sequence (Q9NYK1 27-1049): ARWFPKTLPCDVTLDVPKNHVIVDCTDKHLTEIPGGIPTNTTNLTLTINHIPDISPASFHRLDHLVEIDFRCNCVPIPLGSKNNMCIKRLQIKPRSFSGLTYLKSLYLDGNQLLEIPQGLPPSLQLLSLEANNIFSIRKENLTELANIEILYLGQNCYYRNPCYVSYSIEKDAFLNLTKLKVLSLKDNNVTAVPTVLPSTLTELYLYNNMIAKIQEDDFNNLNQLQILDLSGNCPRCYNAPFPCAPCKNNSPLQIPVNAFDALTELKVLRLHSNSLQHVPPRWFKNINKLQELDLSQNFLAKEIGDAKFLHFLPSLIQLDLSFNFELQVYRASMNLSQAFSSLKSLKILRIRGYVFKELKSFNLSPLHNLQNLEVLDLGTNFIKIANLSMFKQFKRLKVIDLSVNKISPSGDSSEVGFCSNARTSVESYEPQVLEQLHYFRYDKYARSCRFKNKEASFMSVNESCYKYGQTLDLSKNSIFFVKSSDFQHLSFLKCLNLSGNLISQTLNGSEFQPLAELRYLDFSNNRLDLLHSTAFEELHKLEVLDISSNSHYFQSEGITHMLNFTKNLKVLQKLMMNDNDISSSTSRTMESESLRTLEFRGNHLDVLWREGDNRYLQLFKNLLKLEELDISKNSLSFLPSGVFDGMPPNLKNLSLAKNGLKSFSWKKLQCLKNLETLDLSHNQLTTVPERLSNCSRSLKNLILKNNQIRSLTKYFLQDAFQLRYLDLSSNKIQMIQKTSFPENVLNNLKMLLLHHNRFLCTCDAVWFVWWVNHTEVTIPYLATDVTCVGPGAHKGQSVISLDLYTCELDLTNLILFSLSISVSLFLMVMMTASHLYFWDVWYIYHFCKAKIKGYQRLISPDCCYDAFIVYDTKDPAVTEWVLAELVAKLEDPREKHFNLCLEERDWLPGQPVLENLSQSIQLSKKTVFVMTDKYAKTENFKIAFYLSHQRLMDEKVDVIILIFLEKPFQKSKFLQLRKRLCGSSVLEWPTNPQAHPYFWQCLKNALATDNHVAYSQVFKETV
# Experiment: HEK293-Blue-hTLR-7 cells assay (SEAP reporter, R848 stimulation)
# Assay type: cell-based
# Conditions: HEK293-Blue-hTLR7 cells, R848 ligand, 20 hrs incubation, antagonist
# Procedure: The following tests were carried out in order to determine the activity of the compounds of formula (I) in HEK293-Blue-hTLR-7/8/9 cells assay.
# HEK293-Blue-hTLR-7 Cells Assay:
# A stable HEK293-Blue-hTLR-7 cell line was purchased from InvivoGen (Cat. #: hkb-htlr7, San Diego, Calif., USA). These cells were originally designed for studying the stimulation of human TLR7 by monitoring the activation of NF-κB. A SEAP (secreted embryonic alkaline phosphatase) reporter gene was placed under the control of the IFN-β minimal promoter fused to five NF-κB and AP-1-binding sites. The SEAP was induced by activating NF-κB and AP-1 via stimulating HEK-Blue hTLR7 cells with TLR7 ligands. Therefore the reporter expression was declined by TLR7 antagonist under the stimulation of a ligand, such as R848 (Resiquimod), for incubation of 20 hrs. The cell culture supernatant SEAP reporter activity was determined using QUANTI-Blue™ kit (Cat. #: rep-qb1, Invivogen, San Diego, Calif., USA) at a wavelength of 640 nm, a detection medium that turns purple or blue in the presence of alkaline phosphatase.
# HEK293-Blue-hTLR7 cells were incubated at a density of 250,000˜450,000 cells/mL in a volume of 170 μL in a 96-well plate in Dulbecco's Modified Eagle's medium (DMEM) containing 4.5 g/L glucose, 50 U/mL penicillin, […], […], 2 mM L-glutamine, 10% (v/v) heat-inactivated fetal bovine serum with addition of 20 μL test compound in a serial dilution in the presence of final DMSO at 1% and 10 μL of 20 uM R848 in above DMEM, perform incubation under 37° C. in a CO2 incubator for 20 hrs. Then 20 μL of the supernatant from each well was incubated with 180 μL Quanti-blue substrate solution at 37° C. for 2 hrs and the absorbance was read at 620˜655 nm using a spectrophotometer. The signalling pathway that TLR7 activation leads to downstream NF-κB activation has been widely accepted, and therefore similar reporter assay was modified for evaluating TLR7 antagonist.
row,Structure (SMILES),IC50 [nM]
1,"C[C@@H]1CN(c2ccc(C#N)c3ncsc23)C[C@H](CN2[C@@H]3CC[C@H]2C[C@@H](N)C3)O1 [Example 8, Endo-7-[(2S,6R)-2-[[(1R,5S)-3-amino-8-azabicyclo[3.2.1]octan-8-yl]methyl]-6-methyl-morpholin-4-yl]-1,3-benzothiazole-4-carbonitrile]",16
2,"C[C@@H]1CN(c2ccc(C#N)c3ncsc23)C[C@H](CN2CCC(N3CCCCC3)CC2)O1 [Example 7, 7-[(2R,6S)-2-methyl-6-[[4-(1-piperidyl)-1-piperidyl]methyl]morpholin-4-yl]-1,3-benzothiazole-4-carbonitrile]",13
3,"C[C@@H]1CN(c2ccc(C#N)c3ncsc23)C[C@H](CN2[C@@H]3CC[C@H]2C[C@H](N)C3)O1 [Example 9, Exo-7-[(2S,6R)-2-[[(1S,5R)-3-amino-8-azabicyclo[3.2.1]octan-8-yl]methyl]-6-methyl-morpholin-4-yl]-1,3-benzothiazole-4-carbonitrile]",45
4,"C[C@@H]1CN(c2ccc(C#N)c3ncsc23)C[C@H](CN2CCC3(CCCN(C)C3)CC2)O1 [Example 10, 7-[(2R,6S)-2-methyl-6-[(2-methyl-2,9-diazaspiro[5.5]undecan-9-yl)methyl]morpholin-4-yl]-1,3-benzothiazole-4-carbonitrile]",15
5,"C[C@@H]1CN(c2ccc(C#N)c3ncsc23)C[C@H](CN2CCC3(CCNCC3)CC2)O1 [Example 5, 7-[(2S,6R)-2-(3,9-diazaspiro[5.5]undecan-3-ylmethyl)-6-methyl-morpholin-4-yl]-1,3-benzothiazole-4-carbonitrile]",48
6,"C[C@@H]1CN(c2ccc(C#N)c3ncsc23)C[C@H](C(=O)NCC2CN(C)CCO2)O1 (stereo partly drawn) [Example 12, (2R,6R)-4-(4-cyano-1,3-benzothiazol-7-yl)-6-methyl-N-[(4-methylmorpholin-2-yl)methyl]morpholine-2-carboxamide]",4
7,"C[C@@H]1CN(c2ccc(C#N)c3ncsc23)C[C@H](CN2CCC3(CCCNC3)CC2)O1 [Example 3, 7-[(2S,6R)-2-(2,9-diazaspiro[5.5]undecan-9-ylmethyl)-6-methyl-morpholin-4-yl]-1,3-benzothiazole-4-carbonitrile]",19
8,"C[C@@H]1CN(c2ccc(C#N)c3ncsc23)C[C@H](CN2CCC(N)CC2)O1 [Example 2, 7-[(2S,6R)-2-[(4-amino-1-piperidyl)methyl]-6-methyl-morpholin-4-yl]-1,3-benzothiazole-4-carbonitrile]",26
9,"C[C@@H]1CN(c2ccc(C#N)c3ncsc23)C[C@H](CN2CC3(CCCNC3)C2)O1 [Example 4, 7-[(2S,6R)-2-(2,8-diazaspiro[3.5]nonan-2-ylmethyl)-6-methyl-morpholin-4-yl]-1,3-benzothiazole-4-carbonitrile]",12
10,"C[C@@H]1CN(c2ccc(C#N)c3ncsc23)C[C@H](C(=O)NC2CCN(C)CC2)O1 [Example 11, (2R,6R)-4-(4-cyano-1,3-benzothiazol-7-yl)-6-methyl-N-(1-methyl-4-piperidyl)morpholine-2-carboxamide]",5
11,"C[C@@H]1CN(c2ccc(C#N)c3ncsc23)C[C@H](CN2CCC3(CCNC3)CC2)O1 [Example 6, 7-[(2S,6R)-2-(2,8-diazaspiro[4.5]decan-8-ylmethyl)-6-methyl-morpholin-4-yl]-1,3-benzothiazole-4-carbonitrile]",41
12,"C[C@@H]1CN(c2ccc(C#N)c3ncsc23)C[C@H](CN2CCC3(CCCNC3)C2)O1 (stereo partly drawn) [Example 1, 7-[(2S,6R)-2-(2,9-diazaspiro[4.5]decan-2-ylmethyl)-6-methyl-morpholin-4-yl]-1,3-benzothiazole-4-carbonitrile]",11

# Source: patent US11639352B2, “Benzothiazole compounds for the treatment of autoimmune diseases” (Hoffmann-La Roche Inc., priority 2018, dated 2023)
